Reference: ChEMBL document CHEMBL4507281, “Data for DCP probe BI-4394” (2021)

How the values were obtained:
[1] = biological target: Serine/threonine-protein kinase PLK4 (Homo sapiens) (UniProt O00444); conditions: Compound concentration 100.0 nM
[2] = biological target: Casein kinase I isoform gamma-1 (Homo sapiens) (UniProt Q9HCP0); conditions: Compound concentration 100.0 nM
[3] = biological target: Ankyrin repeat and protein kinase domain-containing protein 1 (Homo sapiens) (UniProt Q8NFD2); conditions: Compound concentration 100.0 nM
[4] = tested on: Tyrosine-protein kinase ABL1 (Homo sapiens), P00519 [F317L]; conditions: Compound concentration 100.0 nM
[5] = biological target: Serine/threonine-protein kinase BRSK1 (Homo sapiens) (UniProt Q8TDC3); conditions: Compound concentration 100.0 nM
[6] = biological target: Mitogen-activated protein kinase kinase kinase 3 (Homo sapiens) (UniProt Q99759); conditions: Compound concentration 100.0 nM
[7] = biological target: Tyrosine-protein kinase Srms (Homo sapiens) (UniProt Q9H3Y6); conditions: Compound concentration 100.0 nM
[8] = biological target: Fibroblast growth factor receptor 1 (Homo sapiens) (UniProt P11362); conditions: Compound concentration 10.0 uM
[9] = tested on: Proto-oncogene tyrosine-protein kinase receptor Ret (Homo sapiens), P07949 [V804M]; conditions: Compound concentration 100.0 nM
[10] = tested on: Receptor-type tyrosine-protein kinase FLT3 (Homo sapiens), P36888 [R834Q]; conditions: Compound concentration 100.0 nM
[11] = biological target: Fibroblast growth factor receptor 4 (Homo sapiens) (UniProt P22455); conditions: Compound concentration 100.0 nM
[12] = biological target: Myosin light chain kinase, smooth muscle (Homo sapiens) (UniProt Q15746); conditions: Compound concentration 100.0 nM
[13] = biological target: Serine/threonine-protein kinase MRCK gamma (Homo sapiens) (UniProt Q6DT37); conditions: Compound concentration 100.0 nM
[14] = biological target: Ribosomal protein S6 kinase alpha-3 (Homo sapiens) (UniProt P51812); conditions: Compound concentration 100.0 nM
[15] = biological target: Calcium/calmodulin-dependent protein kinase type II subunit beta (Homo sapiens) (UniProt Q13554); conditions: Compound concentration 100.0 nM
[16] = biological target: Myosin-IIIa (Homo sapiens) (UniProt Q8NEV4); conditions: Compound concentration 100.0 nM
[17] = tested on: Receptor-type tyrosine-protein kinase FLT3 (Homo sapiens), P36888 [D835H]; conditions: Compound concentration 100.0 nM
[18] = tested on: Phosphatidylinositol 4,5-bisphosphate 3-kinase catalytic subunit alpha isoform (Homo sapiens), P42336 [C420R]; conditions: Compound concentration 100.0 nM
[19] = biological target: Sigma non-opioid intracellular receptor 1 (Homo sapiens) (UniProt Q99720); conditions: Compound concentration 10.0 uM
[20] = biological target: Cyclin-dependent kinase-like 5 (Homo sapiens) (UniProt O76039); conditions: Compound concentration 100.0 nM
[21] = biological target: Ephrin type-A receptor 8 (Homo sapiens) (UniProt P29322); conditions: Compound concentration 100.0 nM
[22] = biological target: Mitogen-activated protein kinase kinase kinase kinase 4 (Homo sapiens) (UniProt O95819); conditions: Compound concentration 100.0 nM
[23] = biological target: Ribosomal protein S6 kinase alpha-3 (Homo sapiens) (UniProt P51812); conditions: Compound concentration 10.0 uM
[24] = biological target: Macrophage-stimulating protein receptor (Homo sapiens) (UniProt Q04912); conditions: Compound concentration 100.0 nM
[25] = biological target: Aurora kinase B (Homo sapiens) (UniProt Q96GD4); conditions: Compound concentration 100.0 nM
[26] = biological target: Macrophage colony-stimulating factor 1 receptor (Homo sapiens) (UniProt P07333); conditions: Compound concentration 100.0 nM
[27] = biological target: Serine/threonine-protein kinase ULK1 (Homo sapiens) (UniProt O75385); conditions: Compound concentration 100.0 nM
[28] = biological target: D(3) dopamine receptor (Homo sapiens) (UniProt P35462); conditions: Compound concentration 10.0 uM
[29] = biological target: Serine/threonine-protein kinase 17B (Homo sapiens) (UniProt O94768); conditions: Compound concentration 100.0 nM
[30] = biological target: Mitogen-activated protein kinase kinase kinase 10 (Homo sapiens) (UniProt Q02779); conditions: Compound concentration 100.0 nM
[31] = biological target: Atypical kinase COQ8B, mitochondrial (Homo sapiens) (UniProt Q96D53); conditions: Compound concentration 100.0 nM
[32] = biological target: Tyrosine-protein kinase Mer (Homo sapiens) (UniProt Q12866); conditions: Compound concentration 100.0 nM
[33] = biological target: Kappa-type opioid receptor (Homo sapiens) (UniProt P41145); conditions: Compound concentration 10.0 uM
[34] = biological target: Ribosomal protein S6 kinase alpha-6 (Homo sapiens) (UniProt Q9UK32); conditions: Compound concentration 100.0 nM
[35] = biological target: Serine/threonine-protein kinase B-raf (Homo sapiens) (UniProt P15056); conditions: Compound concentration 100.0 nM
[36] = biological target: Tyrosine-protein kinase JAK2 (Homo sapiens) (UniProt O60674); conditions: Compound concentration 100.0 nM
[37] = biological target: Serine/threonine-protein kinase PAK 3 (Homo sapiens) (UniProt O75914); conditions: Compound concentration 100.0 nM
[38] = biological target: Myosin light chain kinase 2, skeletal/cardiac muscle (Homo sapiens) (UniProt Q9H1R3); conditions: Compound concentration 100.0 nM
[39] = biological target: Serine/threonine-protein kinase PAK 2 (Homo sapiens) (UniProt Q13177); conditions: Compound concentration 100.0 nM
[40] = tested on: Tyrosine-protein kinase ABL1 (Homo sapiens), P00519 [Q252H]; conditions: Compound concentration 100.0 nM
[41] = tested on: Phosphatidylinositol 4,5-bisphosphate 3-kinase catalytic subunit alpha isoform (Homo sapiens), P42336 [H1047Y]; conditions: Compound concentration 100.0 nM
[42] = biological target: Serine/threonine-protein kinase tousled-like 2 (Homo sapiens) (UniProt Q86UE8); conditions: Compound concentration 100.0 nM
[43] = biological target: Microtubule-associated serine/threonine-protein kinase 1 (Homo sapiens) (UniProt Q9Y2H9); conditions: Compound concentration 100.0 nM
[44] = biological target: LIM domain kinase 1 (Homo sapiens) (UniProt P53667); conditions: Compound concentration 100.0 nM
Chain of LIM domain kinase 1 (Homo sapiens) (P53667 whole entry, looked up, the tested form may be a part): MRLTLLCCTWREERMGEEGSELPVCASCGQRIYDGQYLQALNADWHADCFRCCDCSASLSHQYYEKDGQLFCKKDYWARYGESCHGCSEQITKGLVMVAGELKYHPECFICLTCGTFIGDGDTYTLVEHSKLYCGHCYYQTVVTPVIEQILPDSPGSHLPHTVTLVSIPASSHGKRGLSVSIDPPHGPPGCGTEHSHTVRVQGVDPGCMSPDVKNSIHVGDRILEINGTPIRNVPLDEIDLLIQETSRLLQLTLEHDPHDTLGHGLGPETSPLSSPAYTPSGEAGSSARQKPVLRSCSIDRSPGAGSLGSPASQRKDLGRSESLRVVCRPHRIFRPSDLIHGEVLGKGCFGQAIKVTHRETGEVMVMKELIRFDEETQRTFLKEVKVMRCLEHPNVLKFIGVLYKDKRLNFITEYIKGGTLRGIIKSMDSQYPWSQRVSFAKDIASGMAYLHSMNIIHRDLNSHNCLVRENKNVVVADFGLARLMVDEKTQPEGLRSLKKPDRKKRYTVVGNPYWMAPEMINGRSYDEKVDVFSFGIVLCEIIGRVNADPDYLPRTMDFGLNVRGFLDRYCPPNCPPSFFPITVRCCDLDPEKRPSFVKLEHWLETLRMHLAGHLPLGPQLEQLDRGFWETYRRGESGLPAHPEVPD

Chain of Ribosomal protein S6 kinase alpha-3 (Homo sapiens) (P51812 whole entry): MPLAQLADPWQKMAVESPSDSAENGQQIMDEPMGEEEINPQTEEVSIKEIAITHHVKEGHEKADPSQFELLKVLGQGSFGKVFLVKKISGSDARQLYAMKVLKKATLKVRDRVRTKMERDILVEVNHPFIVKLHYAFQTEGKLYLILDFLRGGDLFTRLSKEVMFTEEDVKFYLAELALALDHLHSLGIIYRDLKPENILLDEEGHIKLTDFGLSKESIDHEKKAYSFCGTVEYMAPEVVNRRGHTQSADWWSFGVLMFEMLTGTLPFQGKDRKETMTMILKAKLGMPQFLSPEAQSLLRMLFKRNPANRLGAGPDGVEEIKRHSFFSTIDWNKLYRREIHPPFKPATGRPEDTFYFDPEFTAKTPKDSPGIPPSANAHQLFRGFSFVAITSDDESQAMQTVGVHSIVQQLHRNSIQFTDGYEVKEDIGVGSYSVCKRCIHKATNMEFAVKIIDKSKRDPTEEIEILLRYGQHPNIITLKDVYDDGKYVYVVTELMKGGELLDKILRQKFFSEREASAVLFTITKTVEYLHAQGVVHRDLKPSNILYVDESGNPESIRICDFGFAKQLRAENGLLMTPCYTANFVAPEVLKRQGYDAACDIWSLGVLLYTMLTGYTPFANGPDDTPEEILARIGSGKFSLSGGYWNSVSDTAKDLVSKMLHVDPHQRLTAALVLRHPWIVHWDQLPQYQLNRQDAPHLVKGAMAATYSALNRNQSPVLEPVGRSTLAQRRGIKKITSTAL
Chain of Cyclin-dependent kinase-like 5 (Homo sapiens) (O76039 whole entry): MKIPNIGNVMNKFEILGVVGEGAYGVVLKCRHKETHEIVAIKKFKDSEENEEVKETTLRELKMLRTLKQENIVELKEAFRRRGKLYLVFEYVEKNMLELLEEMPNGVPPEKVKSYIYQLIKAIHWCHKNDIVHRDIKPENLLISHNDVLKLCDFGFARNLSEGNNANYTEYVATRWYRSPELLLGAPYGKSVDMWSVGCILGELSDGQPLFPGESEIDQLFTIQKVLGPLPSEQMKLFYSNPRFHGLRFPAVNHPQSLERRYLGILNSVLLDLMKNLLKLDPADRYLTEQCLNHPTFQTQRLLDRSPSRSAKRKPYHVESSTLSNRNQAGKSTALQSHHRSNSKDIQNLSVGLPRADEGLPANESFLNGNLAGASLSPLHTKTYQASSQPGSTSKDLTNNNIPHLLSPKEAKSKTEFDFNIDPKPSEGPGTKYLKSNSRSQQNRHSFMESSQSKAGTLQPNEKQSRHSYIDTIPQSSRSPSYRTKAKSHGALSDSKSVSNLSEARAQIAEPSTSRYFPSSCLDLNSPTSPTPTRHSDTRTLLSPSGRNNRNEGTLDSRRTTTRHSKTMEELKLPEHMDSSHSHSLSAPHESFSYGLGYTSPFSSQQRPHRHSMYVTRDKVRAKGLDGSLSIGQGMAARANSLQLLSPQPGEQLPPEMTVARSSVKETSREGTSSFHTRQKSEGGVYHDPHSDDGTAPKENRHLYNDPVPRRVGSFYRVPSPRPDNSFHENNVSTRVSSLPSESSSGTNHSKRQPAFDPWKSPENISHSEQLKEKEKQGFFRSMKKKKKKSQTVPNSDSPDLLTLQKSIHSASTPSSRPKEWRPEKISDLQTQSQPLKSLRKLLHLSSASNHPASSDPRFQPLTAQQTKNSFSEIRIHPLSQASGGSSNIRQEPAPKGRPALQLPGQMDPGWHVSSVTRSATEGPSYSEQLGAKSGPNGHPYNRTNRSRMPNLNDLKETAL
Chain of D(3) dopamine receptor (Homo sapiens) (P35462 whole entry): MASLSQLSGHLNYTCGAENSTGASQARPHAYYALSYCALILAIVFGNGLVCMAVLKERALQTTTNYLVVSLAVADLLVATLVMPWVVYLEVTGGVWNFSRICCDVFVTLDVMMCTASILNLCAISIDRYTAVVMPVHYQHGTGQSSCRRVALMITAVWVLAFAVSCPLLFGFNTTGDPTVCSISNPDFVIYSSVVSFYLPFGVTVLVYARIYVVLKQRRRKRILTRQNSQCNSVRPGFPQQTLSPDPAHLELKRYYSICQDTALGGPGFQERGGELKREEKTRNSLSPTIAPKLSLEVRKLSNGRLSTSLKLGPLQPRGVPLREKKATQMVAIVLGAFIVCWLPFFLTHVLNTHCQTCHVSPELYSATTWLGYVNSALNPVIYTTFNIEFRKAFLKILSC
Chain of Serine/threonine-protein kinase PLK4 (Homo sapiens) (O00444 whole entry, canonical isoform): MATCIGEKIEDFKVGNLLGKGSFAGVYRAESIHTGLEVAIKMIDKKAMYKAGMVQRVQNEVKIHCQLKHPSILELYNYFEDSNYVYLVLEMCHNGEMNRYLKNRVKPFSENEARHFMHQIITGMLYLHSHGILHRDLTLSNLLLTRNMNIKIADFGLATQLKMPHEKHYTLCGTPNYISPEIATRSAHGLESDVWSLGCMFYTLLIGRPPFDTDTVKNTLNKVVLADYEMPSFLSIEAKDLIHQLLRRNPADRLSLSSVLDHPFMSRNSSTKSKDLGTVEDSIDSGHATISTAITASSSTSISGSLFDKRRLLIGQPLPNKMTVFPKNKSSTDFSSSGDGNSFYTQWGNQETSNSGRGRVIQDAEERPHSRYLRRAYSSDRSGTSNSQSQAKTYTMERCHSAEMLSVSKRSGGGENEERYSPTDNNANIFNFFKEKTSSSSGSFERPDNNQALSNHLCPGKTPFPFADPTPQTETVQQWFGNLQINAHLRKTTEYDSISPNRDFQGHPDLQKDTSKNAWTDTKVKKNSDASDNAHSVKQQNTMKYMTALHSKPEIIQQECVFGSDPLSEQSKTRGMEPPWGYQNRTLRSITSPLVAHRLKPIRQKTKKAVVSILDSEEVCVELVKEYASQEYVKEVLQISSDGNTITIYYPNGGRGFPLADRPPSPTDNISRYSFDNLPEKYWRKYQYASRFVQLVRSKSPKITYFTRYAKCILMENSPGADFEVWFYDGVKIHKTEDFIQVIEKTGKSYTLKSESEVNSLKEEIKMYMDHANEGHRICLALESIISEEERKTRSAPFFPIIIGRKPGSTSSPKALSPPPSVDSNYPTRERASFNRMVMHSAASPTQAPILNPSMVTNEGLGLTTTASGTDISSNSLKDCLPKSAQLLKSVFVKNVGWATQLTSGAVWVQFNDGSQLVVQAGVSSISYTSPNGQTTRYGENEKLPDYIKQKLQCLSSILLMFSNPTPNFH
Chain of Macrophage colony-stimulating factor 1 receptor (Homo sapiens) (P07333 whole entry): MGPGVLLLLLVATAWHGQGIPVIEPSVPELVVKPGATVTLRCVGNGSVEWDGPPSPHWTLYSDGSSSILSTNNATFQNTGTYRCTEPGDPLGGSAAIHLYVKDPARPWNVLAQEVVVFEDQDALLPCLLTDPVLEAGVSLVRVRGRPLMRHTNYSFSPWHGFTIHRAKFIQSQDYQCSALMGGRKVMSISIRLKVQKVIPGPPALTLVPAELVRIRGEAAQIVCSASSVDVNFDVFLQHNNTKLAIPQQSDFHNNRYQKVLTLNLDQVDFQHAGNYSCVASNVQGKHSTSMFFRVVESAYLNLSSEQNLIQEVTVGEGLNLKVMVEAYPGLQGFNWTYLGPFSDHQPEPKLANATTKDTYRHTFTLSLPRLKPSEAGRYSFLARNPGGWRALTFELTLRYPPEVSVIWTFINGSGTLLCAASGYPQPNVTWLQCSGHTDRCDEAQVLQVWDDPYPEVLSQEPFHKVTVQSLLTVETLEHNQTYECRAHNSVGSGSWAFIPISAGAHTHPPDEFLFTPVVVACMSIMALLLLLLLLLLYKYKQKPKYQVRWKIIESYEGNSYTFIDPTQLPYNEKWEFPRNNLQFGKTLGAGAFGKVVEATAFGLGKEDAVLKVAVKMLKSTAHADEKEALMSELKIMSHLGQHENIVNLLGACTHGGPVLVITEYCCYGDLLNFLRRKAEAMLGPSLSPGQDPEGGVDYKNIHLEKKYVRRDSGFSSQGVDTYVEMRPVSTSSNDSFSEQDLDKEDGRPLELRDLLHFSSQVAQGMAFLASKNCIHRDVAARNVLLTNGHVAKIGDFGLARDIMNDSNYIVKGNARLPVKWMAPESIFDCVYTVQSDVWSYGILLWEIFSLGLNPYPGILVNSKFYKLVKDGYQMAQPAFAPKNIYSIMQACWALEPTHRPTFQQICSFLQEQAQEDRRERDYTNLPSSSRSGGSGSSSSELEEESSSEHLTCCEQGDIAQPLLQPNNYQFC
Chain of Kappa-type opioid receptor (Homo sapiens) (P41145 whole entry): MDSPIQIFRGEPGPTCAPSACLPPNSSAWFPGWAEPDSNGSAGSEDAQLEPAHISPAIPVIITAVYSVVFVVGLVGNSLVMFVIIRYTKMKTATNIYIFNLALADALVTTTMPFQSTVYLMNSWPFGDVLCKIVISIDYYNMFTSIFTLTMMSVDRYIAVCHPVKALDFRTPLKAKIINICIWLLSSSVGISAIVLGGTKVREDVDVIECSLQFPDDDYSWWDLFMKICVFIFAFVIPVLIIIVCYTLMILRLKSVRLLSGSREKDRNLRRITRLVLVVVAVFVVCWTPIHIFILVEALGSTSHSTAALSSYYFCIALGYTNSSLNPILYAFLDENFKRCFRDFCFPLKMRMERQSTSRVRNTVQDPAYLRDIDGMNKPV

`CCOC(=O)c1cc2cc(-c3cc(C(=O)NCc4ccc(C(=O)O)cc4)nn3C)ccc2[nH]1` [BI 4394] gave a residual activity [1] of 82%, a residual activity [2] of 100% and a residual activity [3] of 100%. It also gave a residual activity [4] of 100%, a residual activity [5] of 100% and a residual activity [6] of 94%. It also gave a residual activity [7] of 90%, a residual activity [8] of 94% and a residual activity [9] of 76%. It also gave a residual activity [10] of 78%, a residual activity [11] of 68% and a residual activity [12] of 100%. It also gave a residual activity [13] of 93%, a residual activity [14] of 100% and a residual activity [15] of 96%. It also gave a residual activity [16] of 100%, a residual activity [17] of 100% and a residual activity [18] of 83%. It also gave an inhibition [19] of 14.6%, a residual activity [20] of 87% and a residual activity [21] of 100%. It also gave a residual activity [22] of 95%, a residual activity [23] of 5% and a residual activity [24] of 100%. The residual activity [25] was 100%, the residual activity [26] was 94% and the residual activity [27] was 87%. It also gave an inhibition [28] of 2.74%, a residual activity [29] of 100% and a residual activity [30] of 70%. The residual activity [31] was 100%, the residual activity [32] was 100% and the inhibition [33] was 27.2%. It also gave a residual activity [34] of 95%, a residual activity [35] of 91% and a residual activity [36] of 95%. The residual activity [37] was 77%, the residual activity [38] was 89% and the residual activity [39] was 100%. The residual activity [40] was 92%, the residual activity [41] was 77% and the residual activity [42] was 93%. It also gave a residual activity [43] of 87% and a residual activity [44] of 100%.
In the case of `Cn1nc(C(=O)NCc2ccc(C(=O)O)cc2)cc1-c1ccc2[nH]ccc2c1` [BI 4395], the residual activity [1] is reported as 61%, the residual activity [2] is reported as 91% and the residual activity [3] is reported as 100%. For the same compound, the residual activity [4] was 62%, the residual activity [5] was 86% and the residual activity [6] was 78%. The residual activity [7] was 81%, the residual activity [9] was 91% and the residual activity [10] was 63%. It also gave a residual activity [11] of 100%, a residual activity [12] of 62% and a residual activity [13] of 100%. It also gave a residual activity [14] of 78%, a residual activity [15] of 91% and a residual activity [16] of 95%. The residual activity [17] was 46%, the residual activity [18] was 84% and the inhibition [19] was 1.99%. For the same compound, the residual activity [20] was 85%, the residual activity [21] was 92% and the residual activity [22] was 92%. For the same compound, the residual activity [24] was 100%, the residual activity [25] was 92% and the residual activity [26] was 98%. The residual activity [27] was 83%, the inhibition [28] was 1.67% and the residual activity [29] was 91%. The residual activity [30] was 100%, the residual activity [31] was 100% and the residual activity [32] was 40%. The inhibition [33] was 16.8%, the residual activity [34] was 86% and the residual activity [35] was 74%. It also gave a residual activity [36] of 90%, a residual activity [37] of 82% and a residual activity [38] of 83%. The residual activity [39] was 23%, the residual activity [40] was 71% and the residual activity [41] was 100%. It also gave a residual activity [42] of 89%, a residual activity [43] of 100% and a residual activity [44] of 100%.
